Where “and” joins values, the source holds several entries; their conditions need not be identical. Identical values can stand only once.
Experiments:
CETP [1] = test: Inhibition of CETP activity in vivo: [3H]CE transfer from HDL to VLDL and LDL after intravenous injection; design: species or system golden Syrian hamster; settings: hamsters, injection into jugular vein; for % Inhibition of CETP activity: versus control animals
Text: Inhibition of CETP by a test compound can be determined by administering the compound to an animal by intravenous injection, determining the rate of transfer of tritium-labeled cholesteryl ester (^3H]CE) from HDL to VLDL and LDL particles, and comparing the rate of transfer with the rate of transfer observed in control animals.
Male golden Syrian hamsters were maintained on a diet of chow containing 0.24% cholesterol for at least two weeks prior to the study. Immediately before the experiment, animals were anesthetized with pentobarbital. Anesthesia was maintained throughout the experiment. Indwelling catheters were inserted into the jugular vein and carotid artery. Test compound, Dimethyl 5,5′-dithiobis[2-difluoromethyl)-4-(2-methylpropyl)-6-(trifluoromethyl)-3-pyridinecarboxylate] (Compound 181), was dissolved as a 80 mM stock solution in vehicle (2% ethanol: 98% PEG 400, Sigma Chemical Company, St. Louis, Mo., USA). At the start of the experiment all animals received 0.2 ml of a solution containing [^3H]-CE-HDL into the jugular vein. [^3H[-CE-HDL is a preparation of human HDL containing tritium-labeled cholesteryl ester, and was prepared according to the method of Glenn et al. (“Quantification of Cholesteryl Ester Transfer Protein (CETP): A) CETP Activity and B) Immunochemical Assay of CETP Protein,” Meth. Enzymol., Glenn and Melton (Meth. Enzymol., 263, 339-351 (1996) which is incorporated herein by reference).
After 2 minutes, the animals received 0.1 ml of the test solution injected into the jugular vein. Control animals received 0.1 ml of the vehicle solution without test compound. After 5 minutes, the first blood samples (0.5 ml) were taken from the carotid artery and collected in standard microtainer tubes containing ethylenediamine tetraacetic acid. Saline (0.5 ml) was injected to flush the catheter and replace blood volume. Subsequent blood samples were taken at two hours and four hours by the same method. Blood samples were mixed well and kept on ice until the completion of the experiment.
Plasma was obtained by centrifugation of the blood samples at 4° C. The plasma (50 μl) was then treated with 5 μl of precipitating reagent (dextran sulfate, 10 g/l; 0.5M magnesium chloride to remove VLDL/LDL. After centrifugation, the resulting supernatant (25 μl) containing the HDL was analyzed for radioactivity using a liquid scintillation counter. The percentage [^3H] CE transferred from HDL to LDL and VLDL (% transfer) was calculated based on the total radioactivity in equivalent serum samples before precipitation. Typically, the amount of transfer from HDL to LDL and VLDL in control animals was 30 to 35% after four hours. The polyethylene glycol vehicle was determined to have no effect on CETP activity in this model.
(Compound 181), and five animals that received vehicle. At two hours, mean values of 13% [^3H]-Ce transfer from HDL to LDL and VLDL were obtained for the control animals, but only 4.7% transfer for the animals receiving Compound 181. […] Student t-tests were performed to determine if the means for control and animals treated with Compound 181 were statistically different.

CETP [2] = test: Ex vivo CETP activity assay on serum of chronically infused hamsters; type: in vivo, golden Syrian hamster
Text: Chronic inhibition of CETP can be achieved by administration of Dimethyl 5,5′-dithiobis[2-difluoromethyl)-4-(2-methylpropyl)-6-(trifluoromethyl)-3-pyridinecarboxylate] (Compound 181) to hamsters using Alzet pump delivery of Compound 181 into the jugular veins of hamsters. Inhibition of CETP should lead to an increase in HDL cholesterol with a concomitant decrease in LDL cholesterol. This can be determined by filtering serum obtained at different time intervals after initiation of inhibitor infusion and quantitating the amount of cholesterol in the LDL and HDL peaks, respectively. In addition the activity of CETP in the serum can be assessed in an ex vivo CETP activity assay.
Serum cholesterol profiles were determined on pooled sera from each group. Total serum cholesterol and CETP activity were determined on individual serum samples. In hamsters administered Compound 181 chronically, there was a 30% reduction and 26% increase in LDL cholesterol and HDL cholesterol concentrations, respectively, compared to the vehicle group at Day 5. The decrease in LDL and increase in HDL persisted until Day 8 when the Alzet pump was exhausted. […] Therefore, it would appear that for every percent reduction in CETP activity determined by the ex vivo assay, there was a 2-3% decrease in LDL cholesterol or increase in HDL cholesterol concentrations.

COC(=O)c1c(C(F)F)nc(C(F)(F)F)c(SSc2c(C(F)(F)F)nc(C(F)F)c(C(=O)OC)c2CC(C)C)c1CC(C)C [Compound 181, Dimethyl 5,5′-Dithiobis[2-(difluoromethyl)-4-(2-methylpropyl)-6-(trifluoromethyl)-3-pyridinecarboxylate]]
% Transfer of [3H]-CE from HDL to LDL and VLDL (CETP [1]; four hours): 10.6% | % Inhibition of CETP activity (CETP [1]; four hours): 50.8% | % Transfer of [3H]-CE from HDL to LDL and VLDL (CETP [1]; two hours): 4.7% | % Inhibition of CETP activity (CETP [1]; two hours): 64% and 63.6% | average reduction in CETP activity by ex vivo assay (CETP [2]; Days 5 and 8): 10% | CETP activity by ex vivo assay (CETP [2]; day 12): return to vehicle control level
